# Assay results published in US4385055A, “2-Acetyl-and 2-propionylpyridine thiosemicarbazones as antimalarials” (The United States of America as represented by the …, priority 1981, dated 1983).
# Where two headings read alike, the source gives them in different places.
# Key:
# [1] = system: Mycobacterium intracellulare; assay: Broth dilution MIC, Mycobacterium intracellulare strains (Test 6); type: cell-based; details: read-out: Minimum Inhibitory Concentration
# [2] = system: Plasmodium berghei KBG 173; assay: In vivo antimalarial activity in mice (Test 5); design: key to In vivo Antimalarial Activity: C: Mice surviving 60 days are considered cured; Active: Activity is defined as a 100% increase in the mean survival time of the treated mice compared to the control group; Toxicity is defined as a decrease in the mean survival time of the treated mice as compared to the control group; details: for ED50: Plasmodium berghei, computed estimate of the dose required to cure 50% of the mice; for In vivo Antimalarial Activity: mice, C = Cure (cured/treated mice)
# Protocol: Compounds were tested against Plasmodium berghei KBG 173 malaria in mice following the procedure described by T. S. Osdene, P. B. Russell, and L. Rane [J. Med. Chem. 10:431-434 (1967)]. Five mice were tested at each dosage level. Mice surviving 60 days are considered cured. Toxicity is defined as a decrease in the mean survival time of the treated mice as compared to the control group. Activity is defined as a 100% increase in the mean survival time of the treated mice compared to the control group.
# [3] = system: Mycobacterium smegmatis; assay: MIC against Mycobacterium smegmatis strains (Test 4); type: cell-based; details: Mycolicibacterium smegmatis, read-out: Minimum Inhibitory Concentration
# Protocol: Compounds were tested against four strains of Mycobacterium smegmatis. The test procedure used was as mentioned by N. E. Morrison [Int. J. of Leprosy 39:34-43 (1971)]. The strain numbers refer to Mycobacterium smegmatis ATCC 607, a DDS-resistant daughter strain, a Rifampin-resistant daughter strain, and a Clofazimine-resistant daughter strain, respectively.
# [4] = system: Neisseria gonorrhoeae; assay: Agar dilution MIC, Neisseria gonorrhoeae isolates (Test 3); type: cell-based; details: 24 h, read-out: Minimum Inhibitory Concentration
# Protocol: Compounds were tested against six Neisseria gonorrhoeae isolates. The bacteria used were provided by the Department of Bacterial Diseases of the Walter Reed Army Institute of Research. The test procedure used was the agar dilution method in duplicate as outlined by J. C. Sherris on pages 411-412 (loc. cit.). GC Medium (Difco) with a 2% defined supplement added as described by D. S. Kellogg et al. [J. Bact. 85:1274-1279 (1963)] was used as the media. The compounds were dissolved in DMSO (1.0 mg/mL), diluted with GC broth (GC Medium without agar) to the appropriate concentration, and added to the GC Medium at 55°-56° C. The latter was then poured and allowed to solidify. A penicillin standard was also prepared with initial dilutions as described by J. C. Sherris followed by dilutions with GC broth and addition to the GC Medium at 55°-56° C. as above. The inoculum was 1:200 GC broth dilution of a suspension of colony isolates after the suspension was adjusted visually to the turbidity standard described by J. M. Matsen and A. L. Barr on page 422 in "Manual of Clinical Microbiology," 2nd ed., E. Lennette, E. H. Spaulding, and J. P. Truant, Ed. (American Society for Microbiology, Washington, D.C., 1974). The plates were inoculated with a replicator and incubated at 37° C. under 5-10% carbon dioxide.
# [5] = system: Group D Enterococcus; assay: Macro broth dilution MIC, Group D Enterococcus isolates (Test 1); type: cell-based; details: 24 h, read after 24 hours, read-out: Minimum Inhibitory Concentration
# Protocol: (§1) Compounds were tested against five isolates of Staphylococcus aureus and five isolates of Group D Enterococcus. The bacteria used were isolated from patients at the Walter Reed Army Medical Center, Washington, D.C. The test procedure used was the macro broth dilution method in duplicate as outlined by J. C. Sherris on pages 414-415 in "Manual of Clinical Microbiology," 2nd ed., E. Lennette, E. H. Spaulding, and J. P. Truant, Ed. (American Society for Microbiology, Washington, D.C., 1974). Each compound was dissolved in DMSO (12.8 mg/mL) and then diluted with Mueller-Hinton broth to obtain the desired dilutions. Tubes containing the highest quantities of DMSO with no compound present were run as controls.
# [6] = system: Neisseria meningitidis; assay: Macro broth dilution MIC, Neisseria meningitidis isolates (Test 2); type: cell-based; details: Neisseria meningitidis, 24 h, read after 24 hours, read-out: Minimum Inhibitory Concentration
# Protocol: Compounds were tested against five isolates of Neisseria meningitidis. The bacterial isolates were provided by the Department of Bacterial Diseases of the Walter Reed Army Institute of Research. The test procedure used was the macro broth dilution method in duplicate outlined by J. C. Sherris on pages 414-415 (loc. cit.). The test compounds and controls were prepared as in Test 1 above. Ampicillin and penicillin standards were initially diluted as described by J. C. Sherris on pages 411-412 (loc. cit.) followed by dilution with Mueller-Hinton broth. The tubes were incubated at 37° C. under 5-10% carbon dioxide.
# [7] = system: Staphylococcus aureus; assay: Macro broth dilution MIC, Staphylococcus aureus isolates (Test 1); type: cell-based; details: 24 h, read after 24 hours, read-out: Minimum Inhibitory Concentration
# Protocol: as §1
# [8] = Mycobacterium intracellulare strain I
# [9] = Mycobacterium intracellulare strain II
# [10] = Mycobacterium intracellulare strain III
# [11] = Mycobacterium intracellulare strain IV
# [12] = Mycobacterium intracellulare strain V
# [13] = Mycobacterium intracellulare strain VI
# [14] = Neisseria gonorrhoeae isolate 135, read after 24 hours
# [15] = Neisseria gonorrhoeae isolate 161, read after 24 hours
# [16] = Neisseria gonorrhoeae isolate 278, read after 24 hours
# [17] = Neisseria gonorrhoeae isolate 455, read after 24 hours
# [18] = Neisseria gonorrhoeae isolate 456, read after 24 hours
# [19] = Neisseria gonorrhoeae isolate 602, read after 24 hours
# [20] = Group D Enterococcus isolate II
# [21] = Group D Enterococcus isolate III
# [22] = Group D Enterococcus isolate IV
# [23] = Neisseria meningitidis isolate 7957
# [24] = Neisseria meningitidis isolate 7990
# [25] = Neisseria meningitidis isolate 8005
# [26] = Neisseria meningitidis isolate 8006
# [27] = Neisseria meningitidis isolate 8011
# [28] = Staphylococcus aureus isolate I
# [29] = Staphylococcus aureus isolate II
# [30] = Staphylococcus aureus isolate III
# [31] = Staphylococcus aureus isolate IV
# [32] = Staphylococcus aureus isolate V
smiles,measurement,setting,value
"CCC1CCCCN1C(=S)NN=C(C)c1ccccn1 (stereo not drawn) [AA, 2-Ethylpiperidine-1-thiocarboxylic acid 2-[1-(2-pyridyl)ethylidene]hydrazide]",MIC,[1]; [8],10 µg/mL
same,MIC,[1]; [9],1 µg/mL
same,MIC,[1]; [10],1 µg/mL
same,MIC,[1]; [11],1 µg/mL
same,MIC,[1]; [12],10 µg/mL
same,MIC,[1]; [13],10 µg/mL
same,ED50,[2],113 mg/kg
same,MIC,"[3]; ATCC607, Mycobacterium smegmatis strain I (ATCC 607)",5 µg/mL
same,MIC,[3]; Mycobacterium smegmatis strain II (DDS-resistant daughter strain),10 µg/mL
same,MIC,[3]; Mycobacterium smegmatis strain III (Rifampin-resistant daughter strain),10 µg/mL
same,MIC,[3]; Mycobacterium smegmatis strain IV (Clofazimine-resistant daughter strain),10 µg/mL
"CCOC(=O)N1CCN(C(=S)NN=C(C)c2ccccn2)CC1 [Compound I, 1,4-Diaza-4-carboethoxycyclohexane-1-thiocarboxylic acid 2-[1-(2-pyridyl)ethylidene]hydrazide]",In vivo Antimalarial Activity,[2]; Dosage Level 10 mg/kg,Active
same,In vivo Antimalarial Activity,[2]; Dosage Level 20 mg/kg,Active
same,In vivo Antimalarial Activity,[2]; Dosage Level 160 mg/kg,Toxic
same,In vivo Antimalarial Activity,[2]; Dosage Level 640 mg/kg,Toxic
"CC(=NNC(=S)N1CCCCCC1)c1ccccn1 [H, 1-Azacycloheptane-1-thiocarboxylic acid 2-[1-(2-pyridyl)ethylidene]hydrazide]",MIC,[4]; [14],0.031 µg/mL
same,MIC,[4]; [15],0.016 µg/mL
same,MIC,[4]; [16],0.031 µg/mL
same,MIC,[4]; [17],0.031 µg/mL
same,MIC,[4]; [18],0.016 µg/mL
same,MIC,[4]; [19],0.031 µg/mL
same,MIC,[1]; [8],1 µg/mL
same,MIC,[1]; [9],1 µg/mL
same,MIC,[1]; [10],1 µg/mL
same,MIC,[1]; [11],1 µg/mL
same,MIC,[1]; [12],1 µg/mL
same,MIC,[1]; [13],1 µg/mL
same,ED50,[2],72 mg/kg
same,In vivo Antimalarial Activity,[2]; Dosage Level 40 mg/kg,Active
same,MIC,[5]; Group D Enterococcus isolate I,4 µg/mL
same,MIC,[5]; [20],4 µg/mL
same,MIC,[5]; [21],4 µg/mL
same,MIC,[5]; [22],4 µg/mL
same,MIC,[5]; Group D Enterococcus isolate V,4 µg/mL
same,MIC,[6]; [23],0.031 µg/mL
same,MIC,[6]; [24],0.062 µg/mL
same,MIC,[6]; [25],0.062 µg/mL
same,MIC,[6]; [26],0.125 µg/mL
same,MIC,[6]; [27],0.062 µg/mL
"CC(=NNC(=S)NCc1ccccc1C)c1ccccn1 [N, 2-Acetylpyridine 4-(2-methylbenzyl)-3-thiosemicarbazone]",MIC,[7]; [28],2 µg/mL
same,MIC,[7]; [29],2 µg/mL
same,MIC,[7]; [30],2 µg/mL
same,MIC,[7]; [31],2 µg/mL
same,MIC,[7]; [32],1 µg/mL
"CC(=NNC(=S)N(CC(C)C)CC(C)C)c1ccccn1 [O, 2-Acetylpyridine 4,4-diisobutyl-3-thiosemicarbazone]",MIC,[7]; [28],0.5 µg/mL
same,MIC,[7]; [30],1 µg/mL
same,MIC,[7]; [31],0.5 µg/mL
same,MIC,[7]; [32],0.5 µg/mL
same,MIC,[5]; Group D Enterococcus isolate I,2 µg/mL
same,MIC,[5]; [20],2 µg/mL
same,MIC,[5]; [21],2 µg/mL
same,MIC,[5]; [22],4 µg/mL
same,MIC,[5]; Group D Enterococcus isolate V,2 µg/mL
same,MIC,[6]; [23],0.062 µg/mL
same,MIC,[6]; [24],0.125 µg/mL
same,MIC,[6]; [25],0.5 µg/mL
same,MIC,[6]; [26],0.062 µg/mL
same,MIC,[6]; [27],0.5 µg/mL
"CC(=NNC(=S)NC12CC3CC(CC(C3)C1)C2)c1ccccn1 [S, 2-Acetylpyridine 4-(1-adamantyl)-3-thiosemicarbazone]",MIC,[1]; [8],10 µg/mL
same,MIC,[1]; [9],1 µg/mL
same,MIC,[1]; [10],1 µg/mL
same,MIC,[1]; [11],10 µg/mL
same,MIC,[1]; [12],10 µg/mL
same,MIC,[1]; [13],10 µg/mL
same,MIC,[7]; [28],2 µg/mL
same,MIC,[7]; [29],2 µg/mL
same,MIC,[7]; [30],4 µg/mL
same,MIC,[7]; [31],2 µg/mL
same,MIC,[7]; [32],1 µg/mL
same,MIC,[5]; Group D Enterococcus isolate I,2 µg/mL
same,MIC,[5]; [20],1 µg/mL
same,MIC,[5]; [21],2 µg/mL
same,MIC,[5]; [22],2 µg/mL
same,MIC,[5]; Group D Enterococcus isolate V,2 µg/mL
"CC(=NNC(=S)N1CCN(c2ccccn2)CC1)c1ccccn1 [V, 1,4-Diaza-4-(2-pyridyl)cyclohexane-1-thiocarboxylic acid 2-[1-(2-pyridyl)ethylidene]hydrazide]",MIC,[4]; [14],0.016 µg/mL
same,MIC,[4]; [15],< 0.008 µg/mL
same,MIC,[4]; [16],0.031 µg/mL
same,MIC,[4]; [17],0.016 µg/mL
same,MIC,[4]; [18],0.016 µg/mL
same,MIC,[4]; [19],0.016 µg/mL
same,ED50,[2],45 mg/kg
same,In vivo Antimalarial Activity,[2]; Dosage Level 640 mg/kg,Toxic
same,MIC,[6]; [23],0.062 µg/mL
same,MIC,[6]; [24],0.125 µg/mL
same,MIC,[6]; [25],0.125 µg/mL
same,MIC,[6]; [26],0.125 µg/mL
same,MIC,[6]; [27],0.25 µg/mL
